EP4603105A1, “PHARMACEUTICAL COMPOSITION CONTAINING CYCLIC COMPOUND HAVING SELECTIVE KRAS INHIBITORY EFFECT AGAINST HRAS AND NRAS” (CHUGAI SEIYAKU KABUSHIKI KAISHA, priority 2022, dated 2024)
Where a SMILES comes first, the peptide text is derived from it. Bridges are numbered along the chain shown (N, C = ends). [ ]: non-standard residue; d: D form. The star is where a group is joined. hPhe(3-Cl-4-CF3) = N[C@@H](CCc1ccc(C(F)(F)F)c(Cl)c1)C(=O)O; NPrPhe(4-CF3) = CCCN[C@@H](Cc1ccc(C(F)(F)F)cc1)C(=O)O; NMeGly(cPent) = CN[C@H](C(=O)O)C1CCCC1; Pro(4,4-F2) = O=C(O)[C@@H]1CC(F)(F)CN1; Hyp = O=C(O)[C@@H]1C[C@@H](O)CN1; NMeD = CN[C@@H](CC(=O)O)C(=O)O; NMeL = CN[C@@H](CC(C)C)C(=O)O; Morpholide = C1CN(*)CCO1; NMeA = CN[C@@H](C)C(=O)O; Ac5c = NC1(C(=O)O)CCCC1; Aze = O=C(O)[C@@H]1CCN1; Ac4c = NC1(C(=O)O)CCC1; NEtG = CCNCC(=O)O; Sar = CNCC(=O)O

Tests used:
[1] = molecular target: GDP-bound NRAS wild-type protein (Homo sapiens, UniProt P01111); test: Binding to NRAS by surface plasmon resonance (SPR), KD and KD ratio to KRAS; conditions: ratio of the KD value with respect to GDP-bound NRAS wild-type protein to the KD value with respect to KRAS
How it was run: (§1)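 Recombinant RAS proteins bearing a biotinylated Avi tag and loaded with GDP served as the captured ligand, recaptured fresh every cycle. Binding responses were referenced to an uncoated surface and a buffer-only blank cycle. Dissociation constants were obtained by 1:1 model fitting at 30°C.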

HRAS wild-type protein = HRAS wild-type protein (Homo sapiens, UniProt P01112); test: Binding to HRAS by surface plasmon resonance (SPR), KD and KD ratio to KRAS; conditions: ratio of the KD value with respect to HRAS wild-type protein to the KD value with respect to KRAS
How it was run: as §1

[2] = tested on: human lung cancer strain NCI-H441; type: cell-based
How it was run: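 Signal came from […] measured per well once the reagent was added. Beforehand, cells were cultured at 37°C and 5% carbon dioxide on a compound series serially diluted in dimethyl sulfoxide.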

HRAS wild-type protein, sequence (P01112 whole entry): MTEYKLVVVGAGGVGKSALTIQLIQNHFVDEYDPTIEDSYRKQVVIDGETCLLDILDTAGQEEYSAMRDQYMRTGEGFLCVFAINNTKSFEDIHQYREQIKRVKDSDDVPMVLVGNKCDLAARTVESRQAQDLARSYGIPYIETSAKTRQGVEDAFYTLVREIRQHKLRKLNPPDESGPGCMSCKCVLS
GDP-bound NRAS wild-type protein, sequence (P01111 whole entry): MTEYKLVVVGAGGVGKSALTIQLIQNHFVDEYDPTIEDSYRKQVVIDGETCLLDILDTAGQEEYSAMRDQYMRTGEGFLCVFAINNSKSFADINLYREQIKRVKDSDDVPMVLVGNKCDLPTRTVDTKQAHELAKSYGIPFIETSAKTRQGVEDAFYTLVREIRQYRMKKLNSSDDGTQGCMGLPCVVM

`CCCN1C(=O)CN(C)C(=O)CNC(=O)[C@H]([C@@H](C)CC)NC(=O)[C@H](CC(C)C)N(C)C(=O)C[C@@H](C(=O)N2CCOCC2)N(C)C(=O)[C@H](C2CCCC2)N(C)C(=O)C2(CCCC2)NC(=O)[C@@H]2C[C@@H](OCC)CN2C(=O)[C@H](CCc2ccc(C(F)(F)F)c(Cl)c2)NC(=O)CN(C)C(=O)[C@@H]1Cc1ccc(C(F)(F)F)cc1` [PP0396] ([NMeL]IG[Sar][NPrPhe(4-CF3)][Sar][hPhe(3-Cl-4-CF3)][Hyp](Et)[Ac5c][NMeGly(cPent)][NMeD]-Morpholide; lactam N-11) was tested, and the “NRAS /KRAS” value [1] was “B (a compound having 3 or more and less than 10 is denoted as B)”, the “HRAS /KRAS” value (HRAS wild-type protein) was “C (A compound having a KD ratio of 0.1 or more and less than 3 is denoted as C)” and the IC50 [2] was 0.9 nM.
In the case of `CCCN1C(=O)CN(C)C(=O)CNC(=O)[C@H]([C@@H](C)CC)NC(=O)[C@H](CC(C)C)N(C)C(=O)C[C@@H](C(=O)N2CCOCC2)N(C)C(=O)[C@H](C2CCCC2)N(C)C(=O)C2(CCC2)NC(=O)[C@@H]2C[C@@H](OCC)CN2C(=O)[C@H](CCc2ccc(C(F)(F)F)c(Cl)c2)NC(=O)CN(C)C(=O)[C@@H]1Cc1ccc(C(F)(F)F)cc1` [PP0397] ([NMeL]IG[Sar][NPrPhe(4-CF3)][Sar][hPhe(3-Cl-4-CF3)][Hyp](Et)[Ac4c][NMeGly(cPent)][NMeD]-Morpholide; lactam N-11), the “NRAS /KRAS” value [1] is reported as “C (A compound having a KD ratio of 0.1 or more and less than 3 is denoted as C)”, the “HRAS /KRAS” value (HRAS wild-type protein) is reported as “C (A compound having a KD ratio of 0.1 or more and less than 3 is denoted as C)” and the IC50 [2] is reported as 0.7 nM.
`CCCN1C(=O)CN(C)C(=O)CN(CC)C(=O)[C@H]([C@@H](C)CC)NC(=O)[C@H](CC(C)C)N(C)C(=O)C[C@@H](C(=O)N2CCOCC2)N(C)C(=O)[C@H](C2CCCC2)N(C)C(=O)C2(CCCC2)NC(=O)[C@@H]2CC(F)(F)CN2C(=O)[C@H](CCc2ccc(C(F)(F)F)c(Cl)c2)NC(=O)CN(C)C(=O)[C@@H]1Cc1ccc(C(F)(F)F)cc1` [PP0399] ([NMeL]I[NEtG][Sar][NPrPhe(4-CF3)][Sar][hPhe(3-Cl-4-CF3)][Pro(4,4-F2)][Ac5c][NMeGly(cPent)][NMeD]-Morpholide; lactam N-11) was tested, and the “NRAS /KRAS” value [1] was “B (a compound having 3 or more and less than 10 is denoted as B)”, the “HRAS /KRAS” value (HRAS wild-type protein) was “C (A compound having a KD ratio of 0.1 or more and less than 3 is denoted as C)” and the IC50 [2] was 6.3 nM.
`CCCN1C(=O)CN(C)C(=O)CN(CC)C(=O)[C@H]([C@@H](C)CC)NC(=O)[C@H](CC(C)C)N(C)C(=O)C[C@@H](C(=O)N2CCOCC2)N(C)C(=O)[C@H](C2CCCC2)N(C)C(=O)C2(CCC2)NC(=O)[C@@H]2CC(F)(F)CN2C(=O)[C@H](CCc2ccc(C(F)(F)F)c(Cl)c2)NC(=O)CN(C)C(=O)[C@@H]1Cc1ccc(C(F)(F)F)cc1` [PP0400] ([NMeL]I[NEtG][Sar][NPrPhe(4-CF3)][Sar][hPhe(3-Cl-4-CF3)][Pro(4,4-F2)][Ac4c][NMeGly(cPent)][NMeD]-Morpholide; lactam N-11) was tested, and the “NRAS /KRAS” value [1] was “B (a compound having 3 or more and less than 10 is denoted as B)”, the “HRAS /KRAS” value (HRAS wild-type protein) was “B (a compound having 3 or more and less than 10 is denoted as B)” and the IC50 [2] was 7.8 nM.
`CCCN1C(=O)CN(C)C(=O)CN(CC)C(=O)[C@H]([C@@H](C)CC)NC(=O)[C@H](CC(C)C)N(C)C(=O)C[C@@H](C(=O)N2CCOCC2)N(C)C(=O)[C@H](C2CCCC2)N(C)C(=O)C2(CCC2)NC(=O)[C@@H]2C[C@@H](OCC)CN2C(=O)[C@H](CCc2ccc(C(F)(F)F)c(Cl)c2)NC(=O)CN(C)C(=O)[C@@H]1Cc1ccc(C(F)(F)F)cc1` [PP0401] ([NMeL]I[NEtG][Sar][NPrPhe(4-CF3)][Sar][hPhe(3-Cl-4-CF3)][Hyp](Et)[Ac4c][NMeGly(cPent)][NMeD]-Morpholide; lactam N-11) was tested, and the “NRAS /KRAS” value [1] was “B (a compound having 3 or more and less than 10 is denoted as B)”, the “HRAS /KRAS” value (HRAS wild-type protein) was “B (a compound having 3 or more and less than 10 is denoted as B)” and the IC50 [2] was 5.1 nM.
For `CCCN1C(=O)CN(C)C(=O)[C@@H]2CCN2C(=O)[C@H]([C@@H](C)CC)NC(=O)[C@H](CC(C)C)N(C)C(=O)C[C@@H](C(=O)N2CCOCC2)N(C)C(=O)[C@H](C2CCCC2)N(C)C(=O)C2(CCCC2)NC(=O)[C@@H]2CC(F)(F)CN2C(=O)[C@H](CCc2ccc(C(F)(F)F)c(Cl)c2)NC(=O)CN(C)C(=O)[C@@H]1Cc1ccc(C(F)(F)F)cc1` [PP0403] ([NMeL]I[Aze][Sar][NPrPhe(4-CF3)][Sar][hPhe(3-Cl-4-CF3)][Pro(4,4-F2)][Ac5c][NMeGly(cPent)][NMeD]-Morpholide; lactam N-11), the “NRAS /KRAS” value [1] was “B (a compound having 3 or more and less than 10 is denoted as B)”, the “HRAS /KRAS” value (HRAS wild-type protein) was “B (a compound having 3 or more and less than 10 is denoted as B)” and the IC50 [2] was 19.4 nM.
For `CCCN1C(=O)CN(C)C(=O)[C@@H]2CCN2C(=O)[C@H]([C@@H](C)CC)NC(=O)[C@H](CC(C)C)N(C)C(=O)C[C@@H](C(=O)N2CCOCC2)N(C)C(=O)[C@H](C2CCCC2)N(C)C(=O)C2(CCC2)NC(=O)[C@@H]2C[C@@H](OCC)CN2C(=O)[C@H](CCc2ccc(C(F)(F)F)c(Cl)c2)NC(=O)CN(C)C(=O)[C@@H]1Cc1ccc(C(F)(F)F)cc1` [PP0405] ([NMeL]I[Aze][Sar][NPrPhe(4-CF3)][Sar][hPhe(3-Cl-4-CF3)][Hyp](Et)[Ac4c][NMeGly(cPent)][NMeD]-Morpholide; lactam N-11), the “NRAS /KRAS” value [1] was “B (a compound having 3 or more and less than 10 is denoted as B)”, the “HRAS /KRAS” value (HRAS wild-type protein) was “C (A compound having a KD ratio of 0.1 or more and less than 3 is denoted as C)” and the IC50 [2] was 14.3 nM.
For `CCCN1C(=O)[C@@H]2CCN2C(=O)[C@H](C)N(C)C(=O)[C@H]([C@@H](C)CC)NC(=O)[C@H](CC(C)C)N(C)C(=O)C[C@@H](C(=O)N2CCOCC2)N(C)C(=O)[C@H](C2CCCC2)N(C)C(=O)C2(CCC2)NC(=O)[C@@H]2C[C@@H](OCC)CN2C(=O)[C@H](CCc2ccc(C(F)(F)F)c(Cl)c2)NC(=O)CN(C)C(=O)[C@@H]1Cc1ccc(C(F)(F)F)cc1` [PP0406] ([NMeL]I[NMeA][Aze][NPrPhe(4-CF3)][Sar][hPhe(3-Cl-4-CF3)][Hyp](Et)[Ac4c][NMeGly(cPent)][NMeD]-Morpholide; lactam N-11), the “NRAS /KRAS” value [1] was “C (A compound having a KD ratio of 0.1 or more and less than 3 is denoted as C)”, the “HRAS /KRAS” value (HRAS wild-type protein) was “B (a compound having 3 or more and less than 10 is denoted as B)” and the IC50 [2] was 2.5 nM.
With `CCCN1C(=O)[C@@H]2CCN2C(=O)CN(C)C(=O)[C@H]([C@@H](C)CC)NC(=O)[C@H](CC(C)C)N(C)C(=O)C[C@@H](C(=O)N2CCOCC2)N(C)C(=O)[C@H](C2CCCC2)N(C)C(=O)C2(CCCC2)NC(=O)[C@@H]2CC(F)(F)CN2C(=O)[C@H](CCc2ccc(C(F)(F)F)c(Cl)c2)NC(=O)CN(C)C(=O)[C@@H]1Cc1ccc(C(F)(F)F)cc1` [PP0408] ([NMeL]I[Sar][Aze][NPrPhe(4-CF3)][Sar][hPhe(3-Cl-4-CF3)][Pro(4,4-F2)][Ac5c][NMeGly(cPent)][NMeD]-Morpholide; lactam N-11) the “NRAS /KRAS” value [1] was “C (A compound having a KD ratio of 0.1 or more and less than 3 is denoted as C)”, the “HRAS /KRAS” value (HRAS wild-type protein) was “B (a compound having 3 or more and less than 10 is denoted as B)” and the IC50 [2] was 5.7 nM.
With `CCCN1C(=O)[C@@H]2CCN2C(=O)CN(C)C(=O)[C@H]([C@@H](C)CC)NC(=O)[C@H](CC(C)C)N(C)C(=O)C[C@@H](C(=O)N2CCOCC2)N(C)C(=O)[C@H](C2CCCC2)N(C)C(=O)C2(CCC2)NC(=O)[C@@H]2CC(F)(F)CN2C(=O)[C@H](CCc2ccc(C(F)(F)F)c(Cl)c2)NC(=O)CN(C)C(=O)[C@@H]1Cc1ccc(C(F)(F)F)cc1` [PP0409] ([NMeL]I[Sar][Aze][NPrPhe(4-CF3)][Sar][hPhe(3-Cl-4-CF3)][Pro(4,4-F2)][Ac4c][NMeGly(cPent)][NMeD]-Morpholide; lactam N-11) the “NRAS /KRAS” value [1] was “C (A compound having a KD ratio of 0.1 or more and less than 3 is denoted as C)”, the “HRAS /KRAS” value (HRAS wild-type protein) was “C (A compound having a KD ratio of 0.1 or more and less than 3 is denoted as C)” and the IC50 [2] was 4.4 nM.
With `CCCN1C(=O)[C@@H]2CCN2C(=O)CN(C)C(=O)[C@H]([C@@H](C)CC)NC(=O)[C@H](CC(C)C)N(C)C(=O)C[C@@H](C(=O)N2CCOCC2)N(C)C(=O)[C@H](C2CCCC2)N(C)C(=O)C2(CCCC2)NC(=O)[C@@H]2C[C@@H](OCC)CN2C(=O)[C@H](CCc2ccc(C(F)(F)F)c(Cl)c2)NC(=O)CN(C)C(=O)[C@@H]1Cc1ccc(C(F)(F)F)cc1` [PP0410] ([NMeL]I[Sar][Aze][NPrPhe(4-CF3)][Sar][hPhe(3-Cl-4-CF3)][Hyp](Et)[Ac5c][NMeGly(cPent)][NMeD]-Morpholide; lactam N-11) the “NRAS /KRAS” value [1] was “C (A compound having a KD ratio of 0.1 or more and less than 3 is denoted as C)”, the “HRAS /KRAS” value (HRAS wild-type protein) was “B (a compound having 3 or more and less than 10 is denoted as B)” and the IC50 [2] was 1.4 nM.
For `CCCN1C(=O)[C@@H]2CCN2C(=O)CN(C)C(=O)[C@H]([C@@H](C)CC)NC(=O)[C@H](CC(C)C)N(C)C(=O)C[C@@H](C(=O)N2CCOCC2)N(C)C(=O)[C@H](C2CCCC2)N(C)C(=O)C2(CCC2)NC(=O)[C@@H]2C[C@@H](OCC)CN2C(=O)[C@H](CCc2ccc(C(F)(F)F)c(Cl)c2)NC(=O)CN(C)C(=O)[C@@H]1Cc1ccc(C(F)(F)F)cc1` [PP0411] ([NMeL]I[Sar][Aze][NPrPhe(4-CF3)][Sar][hPhe(3-Cl-4-CF3)][Hyp](Et)[Ac4c][NMeGly(cPent)][NMeD]-Morpholide; lactam N-11), the “NRAS /KRAS” value [1] was “C (A compound having a KD ratio of 0.1 or more and less than 3 is denoted as C)”, the “HRAS /KRAS” value (HRAS wild-type protein) was “C (A compound having a KD ratio of 0.1 or more and less than 3 is denoted as C)” and the IC50 [2] was 2.8 nM.
